# US20240409585A1, “MACROCYCLIC IMMUNOMODULATORS” (priority 2021, published 2024)
# Numbered stars: 1 amine (or outer) side, 2 acyl side, 3 side chain; on linkers, the order of the positions; unused ones are H or OH. Bridge positions count the residues as written; N and C are the ends. Square brackets hold non-standard residues; d marks the D form. Peptide text beside a SMILES is read from it. * marks the point of attachment. ξ: configuration not given here. X28 = O=C([C@H](Cc1ccc2ccncc2c1)N[*:1])[*:2]; Bip = N[C@@H](Cc1ccc(-c2ccccc2)cc1)C(=O)O; Morpholine(3S-CO) = O=C(O)[C@@H]1COCCN1; Phe(2-CN) = N#Cc1ccccc1C[C@H](N)C(=O)O; Phe(3-Me) = Cc1cccc(C[C@H](N)C(=O)O)c1; 3Pal = N[C@@H](Cc1cccnc1)C(=O)O; 4Pal = N[C@@H](Cc1ccncc1)C(=O)O; d3Pal = N[C@H](Cc1cccnc1)C(=O)O; Cha = N[C@@H](CC1CCCCC1)C(=O)O; Ile(3ξ) = CCC(C)[C@H](N)C(=O)O; Thr(3ξ) = CC(O)[C@H](N)C(=O)O; Pip = O=C(O)[C@@H]1CCCCN1; Carboxymethyl = O=C(O)C*; NMeA = CN[C@@H](C)C(=O)O; Orn = NCCC[C@H](N)C(=O)O; Dab = NCC[C@H](N)C(=O)O; Dap = NC[C@H](N)C(=O)O; ξC = NC(CS)C(=O)O
# Target: T1, PE-labeled human PD-L1-Ig binding to Jurkat cell line over-expressing human PD-1 (Jurkat-PD-1) (Homo sapiens, UniProt Q15116)
# T1 construct: expressed in transfected cells; host or cells: Jurkat
# T1 sequence (Q15116 25-288): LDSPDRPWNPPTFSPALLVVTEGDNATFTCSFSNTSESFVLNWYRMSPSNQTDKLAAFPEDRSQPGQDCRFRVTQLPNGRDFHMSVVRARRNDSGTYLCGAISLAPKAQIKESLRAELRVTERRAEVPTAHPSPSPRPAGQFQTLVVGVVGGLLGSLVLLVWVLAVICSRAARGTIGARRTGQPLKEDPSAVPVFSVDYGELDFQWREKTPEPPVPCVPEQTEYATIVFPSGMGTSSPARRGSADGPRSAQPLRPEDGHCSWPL
# Experiment: Jurkat-PD-1 Cell Binding High-Content Screening Assay (CBA): Method 1
# Conditions: Jurkat-hPD-1 cells, PE-labeled PD-L1-Ig 20 nM final; read-out: Jurkat HPDL1 PD1 IC50 (uM) (Method 1)
row,Compound,IC50
1,Cc1cccc(C[C@@H]2NC(=O)[C@H](CC(=O)O)NC(=O)[C@H](Cc3ccc(O)cc3)NC(=O)[C@H](Cc3ccccc3)NC(=O)CSC[C@@H](C(=O)NCC(N)=O)NC(=O)[C@H](CO)NC(=O)[C@H](C(C)C)NC(=O)[C@H](CC(C)C)NC(=O)[C@H](CC(N)=O)NC(=O)[C@@H](CC(C)C)NC(=O)[C@H](C)N(C)C(=O)[C@H](C(C)C)NC(=O)[C@H](Cc3ccc(-c4ccccc4)cc3)NC(=O)[C@H](CC(C)C)NC2=O)c1 [Compound 1517] ({CH2CO}-FYD[Phe(3-Me)]L[Bip]V[NMeA][dL]NLVSCG-NH2; thioether N-14),0.02 µM
2,Cc1cccc(C[C@@H]2NC(=O)[C@H](CC(=O)O)NC(=O)[C@H](Cc3ccc(OCC(=O)O)cc3)NC(=O)[C@H](CN)NC(=O)CSC[C@@H](C(N)=O)NC(=O)[C@H](CO)NC(=O)[C@H](C(C)C)NC(=O)[C@H](CC3CCCCC3)NC(=O)[C@H](CCN)NC(=O)[C@@H](CC(C)C)NC(=O)[C@@H]3CCCCN3C(=O)[C@H](Cc3ccc(OCC(=O)O)cc3)NC(=O)[C@H](Cc3ccc(-c4ccccc4)cc3)NC(=O)[C@H](Cc3ccc(OCC(=O)O)cc3)NC2=O)c1 [Compound 1892] ({CH2CO}-[Dap]Y(Carboxymethyl)D[Phe(3-Me)]Y(Carboxymethyl)[Bip]Y(Carboxymethyl)[Pip][dL][Dab][Cha]VSC-NH2; thioether N-14),0.06 µM
3,CCC(C)[C@@H]1NC(=O)[C@H](Cc2ccc(-c3ccccc3)cc2)NC(=O)[C@H](C(C)C)NC(=O)[C@H](Cc2c[nH]c3ccccc23)NC(=O)[C@H](CC(=O)O)NC(=O)[C@H](Cc2ccc(C(=O)O)cc2)NC(=O)[C@H](Cc2ccc(OCC(=O)O)cc2)NC(=O)CSC[C@@H](C(=O)N[C@@H](CCC(=O)O)C(=O)N[C@H](C(N)=O)C(=O)O)NC(=O)[C@H](CO)NC(=O)[C@H](C(C)C)NC(=O)[C@H](CC2CCCCC2)NC(=O)[C@H](CC(N)=O)NC(=O)[C@@H](CC(C)C)NC(=O)[C@H](C)N(C)C1=O (stereo partly shown) [Compound 2008],0.04 µM
4,CC(C)C[C@@H]1NC(=O)[C@H](Cc2c[nH]c3ccccc23)NC(=O)[C@H](CC(=O)O)NC(=O)[C@H](Cc2ccccc2C#N)NC(=O)[C@H](Cc2ccccc2)NC(=O)CSC[C@@H](C(=O)N[C@@H](C)C(N)=O)NC(=O)[C@H](CO)NC(=O)[C@H](C(C)C)NC(=O)[C@H](CC(C)C)NC(=O)[C@H](CC(N)=O)NC(=O)[C@@H](C)NC(=O)[C@H](C)N(C)C(=O)[C@H](C(C)C)NC(=O)[C@H](Cc2ccc(-c3ccccc3)cc2)NC1=O [Compound 1806] ({CH2CO}-F[Phe(2-CN)]DWL[Bip]V[NMeA][dA]NLVSCA-NH2; thioether N-14),0.23 µM
5,CC(C)C[C@@H]1NC(=O)[C@H](Cc2c[nH]c3ccccc23)NC(=O)[C@H](CC(=O)O)NC(=O)[C@H](Cc2ccc(O)cc2)NC(=O)[C@H](Cc2cccnc2)NC(=O)CSC[C@@H](C(=O)NCC(N)=O)NC(=O)[C@H](CO)NC(=O)[C@H](C(C)C)NC(=O)[C@H](CC(C)C)NC(=O)[C@H](CC(N)=O)NC(=O)[C@@H](C)NC(=O)[C@H](C)N(C)C(=O)[C@H](C(C)C)NC(=O)[C@H](Cc2ccc(-c3ccccc3)cc2)NC1=O [Compound 1743] ({CH2CO}-[3Pal]YDWL[Bip]V[NMeA][dA]NLVSCG-NH2; thioether N-14),0.02 µM
6,CCC(C)[C@@H]1NC(=O)[C@H](Cc2ccc(-c3ccccc3)cc2)NC(=O)[C@H](C(C)C)NC(=O)[C@H](Cc2c[nH]c3ccccc23)NC(=O)[C@H](CC(=O)O)NC(=O)[C@H](Cc2ccc(O)cc2)NC(=O)[C@H](Cc2ccc3ccncc3c2)NC(=O)CSCC(C(=O)NCC(=O)O)NC(=O)[C@H](C(C)O)NC(=O)[C@H](C(C)C)NC(=O)[C@H](CC2CCCCC2)NC(=O)[C@H](CCN)NC(=O)[C@@H](CC(C)C)NC(=O)[C@H](C)N(C)C1=O (stereo partly drawn) [Compound 2219] ({CH2CO}-[X28]YDWV[Bip][Ile(3ξ)][NMeA][dL][Dab][Cha]V[Thr(3ξ)][ξC]G-OH; thioether N-14),0.02 µM
7,CC(C)C[C@@H]1NC(=O)[C@H](Cc2c[nH]c3ccccc23)NC(=O)[C@H](CC(=O)O)NC(=O)[C@H](Cc2ccc(O)cc2)NC(=O)[C@H](Cc2ccccc2)NC(=O)CSC[C@@H](C(=O)N[C@@H](C)C(N)=O)NC(=O)[C@H](CO)NC(=O)[C@H](C(C)C)NC(=O)[C@H](CC(C)C)NC(=O)[C@H](CCCNC(=N)N)NC(=O)[C@@H](CC(C)C)NC(=O)[C@H](C)N(C)C(=O)[C@H](CCCNC(=N)N)NC(=O)[C@H](Cc2ccc(-c3ccccc3)cc2)NC1=O [Compound 1780] ({CH2CO}-FYDWL[Bip]R[NMeA][dL]RLVSCA-NH2; thioether N-14),0.08 µM
8,CC(C)C[C@@H]1NC(=O)[C@H](CCCNC(=N)N)NC(=O)[C@@H](Cc2cccnc2)NC(=O)[C@H](C)N(C)C(=O)[C@H](CCCNC(=N)N)NC(=O)[C@H](Cc2ccc(-c3ccccc3)cc2)NC(=O)[C@H](C(C)C)NC(=O)[C@H](Cc2c[nH]c3ccccc23)NC(=O)[C@H](CC(=O)O)NC(=O)[C@H](Cc2ccc(O)cc2)NC(=O)[C@H](Cc2ccccc2)NC(=O)CSC[C@@H](C(=O)N[C@@H](C)C(N)=O)NC(=O)[C@H]([C@@H](C)O)NC(=O)[C@H](C(C)C)NC1=O [Compound 1104] ({CH2CO}-FYDWV[Bip]R[NMeA][d3Pal]RLVTCA-NH2; thioether N-14),0.13 µM

# The remaining lines, values ahead:
row,IC50,Compound
1,0.02 µM,CC[C@H](C)[C@@H]1NC(=O)[C@H](Cc2ccc(-c3ccccc3)cc2)NC(=O)[C@H](C(C)C)NC(=O)[C@H](Cc2c[nH]c3ccccc23)NC(=O)[C@H](CC(=O)O)NC(=O)[C@H](Cc2ccc(O)cc2)NC(=O)[C@H](Cc2ccncc2)NC(=O)CSC[C@@H](C(=O)N[C@@H](C)C(N)=O)NC(=O)[C@H]([C@@H](C)O)NC(=O)[C@H](C(C)C)NC(=O)[C@H](CC(C)C)NC(=O)[C@H](CCN)NC(=O)[C@@H](CC(C)C)NC(=O)[C@H](C)N(C)C1=O [Compound 1400] ({CH2CO}-[4Pal]YDWV[Bip]I[NMeA][dL][Dab]LVTCA-NH2; thioether N-14)
2,0.05 µM,CC[C@H](C)[C@@H]1NC(=O)[C@H](Cc2ccc(-c3ccccc3)cc2)NC(=O)[C@H](CC(C)C)NC(=O)[C@H](Cc2c[nH]c3ccccc23)NC(=O)[C@H](CC(=O)O)NC(=O)[C@H](Cc2ccc(OCC(=O)O)cc2)NC(=O)[C@H](Cc2ccccc2)NC(=O)CSC[C@@H](C(N)=O)NC(=O)[C@H](CO)NC(=O)[C@H](C(C)C)NC(=O)[C@H](CC(C)C)NC(=O)[C@H](CC(N)=O)NC(=O)[C@@H](CC(C)C)NC(=O)[C@H](C)N(C)C1=O [Compound 1629] ({CH2CO}-FY(Carboxymethyl)DWL[Bip]I[NMeA][dL]NLVSC-NH2; thioether N-14)
3,0.02 µM,CC(C)C[C@@H]1NC(=O)[C@H](Cc2c[nH]c3ccccc23)NC(=O)[C@H](CC(=O)O)NC(=O)[C@H](Cc2ccc(O)cc2)NC(=O)[C@H](Cc2ccccc2)NC(=O)CSC[C@@H](C(=O)N[C@@H](C)C(N)=O)NC(=O)[C@H]([C@@H](C)O)NC(=O)[C@H](C(C)C)NC(=O)[C@H](CC(C)C)NC(=O)[C@H](CCN)NC(=O)[C@@H](C)NC(=O)[C@H](C)N(C)C(=O)[C@H](C(C)C)NC(=O)[C@H](Cc2ccc(-c3ccccc3)cc2)NC1=O [Compound 1478] ({CH2CO}-FYDWL[Bip]V[NMeA][dA][Dab]LVTCA-NH2; thioether N-14)
4,0.02 µM,CC(C)C[C@@H]1NC(=O)[C@H](Cc2c[nH]c3ccccc23)NC(=O)[C@H](CC(=O)O)NC(=O)[C@H](Cc2ccc(O)cc2)NC(=O)[C@H](Cc2ccccc2)NC(=O)CSC[C@@H](C(=O)N[C@@H](C)C(N)=O)NC(=O)[C@H]([C@@H](C)O)NC(=O)[C@H](C(C)C)NC(=O)[C@H](CC(C)C)NC(=O)[C@H](CC(N)=O)NC(=O)[C@@H](CC(C)C)NC(=O)[C@H](C)N(C)C(=O)[C@H](C(C)C)NC(=O)[C@H](Cc2ccc(-c3ccccc3)cc2)NC1=O [Compound 1467] ({CH2CO}-FYDWL[Bip]V[NMeA][dL]NLVTCA-NH2; thioether N-14)
5,0.12 µM,CCC(C)[C@@H]1NC(=O)[C@H](Cc2ccc(-c3ccccc3)cc2)NC(=O)[C@H](CC(C)C)NC(=O)[C@H](Cc2c[nH]c3ccccc23)NC(=O)[C@H](CC(=O)O)NC(=O)[C@H](Cc2ccc(OCC(=O)O)cc2)NC(=O)[C@H](C(C)O)NC(=O)CSC[C@@H](C(=O)N[C@@H](CC(N)=O)C(=O)O)NC(=O)[C@H](CN)NC(=O)[C@H](C(C)C)NC(=O)[C@H](CC(C)C)NC(=O)[C@H](CCN)NC(=O)[C@@H](CC(C)C)NC(=O)[C@H](C)N(C)C1=O (stereo partly drawn) [Compound 2228] ({CH2CO}-[Thr(3ξ)]Y(Carboxymethyl)DWL[Bip][Ile(3ξ)][NMeA][dL][Dab]LV[Dap]CN-OH; thioether N-14)
6,0.02 µM,CCC(C)[C@@H]1NC(=O)[C@H](Cc2ccc(-c3ccccc3)cc2)NC(=O)[C@H](C(C)C)NC(=O)[C@H](Cc2c[nH]c3ccccc23)NC(=O)[C@H](CC(=O)O)NC(=O)[C@H](Cc2ccc(O)cc2)NC(=O)[C@H](CC(N)=O)NC(=O)CSC[C@@H](C(=O)N[C@@H](CCCCN)C(N)=O)NC(=O)[C@H](C(C)O)NC(=O)[C@H](C(C)C)NC(=O)[C@H](CC2CCCCC2)NC(=O)[C@H](CCN)NC(=O)[C@@H](CC(C)C)NC(=O)[C@H](C)N(C)C1=O (stereo partly drawn) [Compound 2079] ({CH2CO}-NYDWV[Bip][Ile(3ξ)][NMeA][dL][Dab][Cha]V[Thr(3ξ)]CK-NH2; thioether N-14)
7,0.07 µM,CC(C)C[C@@H]1NC(=O)[C@H](CCCN)NC(=O)[C@@H](CC(C)C)NC(=O)[C@H](C)N(C)C(=O)[C@H](CCCNC(=N)N)NC(=O)[C@H](Cc2ccc(-c3ccccc3)cc2)NC(=O)[C@H](C(C)C)NC(=O)[C@H](Cc2c[nH]c3ccccc23)NC(=O)[C@H](CC(=O)O)NC(=O)[C@H](Cc2ccc(O)cc2)NC(=O)[C@H](Cc2ccccc2)NC(=O)CSC[C@@H](C(=O)N[C@@H](CO)C(N)=O)NC(=O)[C@H]([C@@H](C)O)NC(=O)[C@H](C(C)C)NC1=O [Compound 1176] ({CH2CO}-FYDWV[Bip]R[NMeA][dL][Orn]LVTCS-NH2; thioether N-14)
8,0.39 µM,CC(C)C[C@@H]1NC(=O)[C@H](CCN)NC(=O)[C@@H](CC(C)C)NC(=O)[C@@H]2COCCN2C(=O)[C@H](C(C)C)NC(=O)[C@H](Cc2ccc(-c3ccccc3)cc2)NC(=O)[C@H](C(C)C)NC(=O)[C@H](Cc2c[nH]c3ccccc23)NC(=O)[C@H](CC(=O)O)NC(=O)[C@H](Cc2ccc(O)cc2)NC(=O)[C@H](CC(N)=O)NC(=O)CSC[C@@H](C(=O)N[C@@H](C)C(N)=O)NC(=O)[C@H]([C@@H](C)O)NC(=O)[C@H](C(C)C)NC1=O [Compound 1367] ({CH2CO}-NYDWV[Bip]V[Morpholine(3S-CO)][dL][Dab]LVTCA-NH2; thioether N-14)
